Experimental data published in patent US8765941B2 (Kino Pharma, Inc., priority 2008, dated 2014).
Read-outs that look alike come from different tables or passages of the source.

Columns and labels:
[1] = Toxicity test by repeated in vivo administration; design: species or system mice (Cr1j/CD1 (ICR) mice, male); details: oral
Description: A conditioning period of one week (day-7 to day-1) was provided for mice (Cr1j/CD1 (ICR) mice, male, 5-week-old), and then the mice were grouped based on the mean body weight on the day before the initiation of the test. Also, the dose of Compound 5 was calculated based on the mean body weight (day-1). There were 2 groups to which Compound 5 was administered: a placebo-administered group (n=6) to which a placebo was administered and a Compound 5-administered group (n=6) to which Compound 5 was administered. On the days of administration (day 00 to day 07), the test compound formulated using 0.5% carboxymethyl cellulose was administered via oral administration for 7 days in a row. Symptoms were observed during the administration period.
During the test period, the body weight of each mouse was weighed on day −7, day −3, day −1, day 4, and day 7.

[2] = test system: LuHCV cells; assay: Effects on the growth of LuHCV cells (hemocytometer count); format: cell-based, human; details: 20 μM, 0, 6, 12, 24, 36 and 48 hours
Description: LuHCV cells were plated onto a 6-well plate at 5×10^4 cells/1 mL/well and then incubated overnight. […] The final concentration of Compound 5 was 20 μM. […] After addition of Compound 5, cells were collected from 3 wells at 0, 6, 12, 24, 36, and 48 hours later, the number of viable cells per well was measured using a hemocytometer, and then the average value was calculated. Wells to which only DMSO had been added were used as control wells.

[3] = test system: HCV-NS5A protein; assay: HCV protein expression-suppressing activity by Western blotting in LuHCV cells; format: cell-based, hepatitis C virus (HCV); details: 20 μM, 14 hours and 60 hours
Description: LuHCV cells were plated onto 10-cm dishes at 1×10^6 cells/dish and then incubated overnight or longer. Subsequently, Compound 5 dissolved in DMSO was added at a final concentration of 20 μM. Cells were further gently cultured under culture conditions of 37° C. and 5% CO2. DMSO alone was added to a control dish. At 14 hours and 60 hours after addition of Compound 5, cells were collected. Cells were lysed using a cell lysis solution (25 mM NaPO4 (pH 7.5), 150 mM NaCl, 1% Triton X-100, 1 mM EDTA, 20% glycerol, and protease inhibitor cocktail (Roche Diagnostics)), so that cell extracts were obtained. With the use of the thus obtained cell extracts (10 μg each), expression analysis was performed by Western blotting for an HCV-NS5A protein (an antibody was purchased from Virogen) and β-actin (an antibody was purchased from Sigma).

[4] = test system: intracellular HCV protein (NS3-NS4-NS5A-NS5B); assay: HCV viral protein expression assay using LuHCV cells (luciferase activity); details: 48 hours, LuHCV cells
Description: As an HCV viral protein expression assay, screening was performed for compounds having anti-HCV activity using human hepatocytes with which the replication and expression of the intracellular HCV protein (NS3-NS4-NS5A-NS5B) can be evaluated through determination of luciferase activity (hereinafter, referred to as LuHCV).
LuHCV cells were plated onto 96-well plates at 5×10^3 cells/50 μL/well and then incubated overnight. Test compounds were each dissolved in dimethyl sulfoxide (DMSO) and dilution series were prepared using DMSO, if necessary. On the next day of plating of LuHCV cells, a medium containing a test compound with a concentration twice the final test concentration was added at 50 μL/well. Cells were gently cultured under culture conditions of 48 hours, 37° C., and 5% CO2 (the final concentrations of the test compounds: 0, 10, and 20 μM). At this time, analysis was made using 3 test wells for each test compound and for each concentration.
Culture medium was removed after 48 hours. Glo lysis buffer (100 μL) (Promega) was added to each well and then cells were disrupted, so that a cell extract was obtained. With the use of 50 μL of the thus obtained cell extract, 50 μL of a Bright-Glo™ Luciferase Assay System (Promega) reagent was added. Luciferase activity in the extract was determined by measuring luminescence intensity for one second using a measuring device ARVO (PerkinElmer Co., Ltd.).
Based on the thus obtained numerical values of luminescence intensity, an average value for each test compound at each concentration was calculated. The luminescence intensity percentage for each test compound was calculated based on a luminescence intensity for DMSO (used as a control for test substances) as 100%.
Culture medium was removed after 48 hours. Glo Lysis buffer (100 μL) (Promega) was added to each well and then cells were disrupted, so that a cell extract was obtained. With the use of 50 μL of the thus obtained cell extract, 50 μL of a Bright-Glo™ Luciferase Assay System (Promega) reagent was added. Luciferase activity in the extract was determined by measuring luminescence intensity for one second using a measuring device ARVO (PerkinElmer Co., Ltd.).
Based on the thus obtained numerical values of luminescence intensity, an average value for each test compound at each concentration was calculated. The luminescence intensity percentage for each test compound was calculated based on a luminescence intensity of DMSO (used as a control for test substances) as 100%.

[5] = test system: HCV RNA (NS5A); assay: Effects on replication and stability of HCV RNA (RT-PCR) in LuHCV cells; format: cell-based, hepatitis C virus (HCV); details: 20 μM, 14 hours and 60 hours
Description: LuHCV cells were plated onto 10-cm dishes at 1×10^6 cells/dish and then incubated overnight or longer. Subsequently, Compound 5 dissolved in DMSO was added at a final concentration of 20 μM. Cells were further gently cultured under culture conditions of 37° C. and 5% CO2. DMSO alone was added to a control dish. At 14 hours and 60 hours after addition of Compound 5, cells were collected and then total RNA was extracted using Sepasol-RNA (NACALAI TESQUE, INC.). cDNA was synthesized using SuperScript II reverse transcriptase (Invitrogen) and oligo-dTprimer (Promega) or random primers (Invitrogen Corporation). PCR was performed using the thus synthesized cDNA as a template, NS5A-specific primers (5′-[…]-3′ (SEQ ID NO: 1) and 5′-[…]-3′ (SEQ ID NO: 2)), GAPDH primers (5′-[…]-3′ (SEQ ID NO: 3) and 5′-[…]-3′ (SEQ ID NO: 4)), and PrimeSTAR HS DNA polymerase (Takara Bio Inc.). After DNA amplification reaction, agarose gel electrophoresis and ethidium bromide staining were performed. The expression level of each gene was evaluated using a UV transilluminator.

[6] = test system: influenza virus

O=C(NC(=S)Nc1cc(C(F)(F)F)ccc1N1CCCCCCC1)c1cccnc1 [Compound 5, N-nicotinoyl-N′-[2-(azacyclooctan-1-yl)-5-(trifluoromethyl)phenyl]thiourea]
dead mice during the administration period ([1]; 1000 mg/kg/day, 7 days): no dead mice were observed | level at which no adverse effect is observed ([1]; 7 days repeated administration, mice): ≥ 1000 mg/kg | number of viable cells at each time point versus DMSO control [2]: Almost no differences were observed | expression level of NS5A (Western blotting) [3]: a decrease in the expression level of NS5A was observed | expression level of β-actin (Western blotting) [3]: no change was observed | luciferase activity (result in words) ([4]; 0, 10 and 20 μM): Decreases in luciferase activity | decrease in luminescence intensity compared with the control ([4]; 10 μM): about 50% | amount of NS5A and GAPDH RNA (RT-PCR) [5]: no quantitative change was observed | viability (% control) ([6]; 5 µM): 41.8 ± 2.2 % control | viability (% control) ([6]; 10 µM): 63.1 ± 0.9 % control | cell death due to influenza virus infection (result in words) ([6]; 5 and 10 μM, 48 hours, MDCK cells): cell death was decreased
